This note sets out measurements from ChEMBL document CHEMBL1125011, “Potential antimitotic agents. Synthesis of some ethyl benzopyrazin-7-ylcarbamates, ethyl pyrido[3,4-b]pyrazin-7-ylcarbamates, and ethyl pyrido[3,4-e]-as-triazin-7-ylcarbamates” (J Med Chem, 1990).

Test [1] deals with L1210. In words: Concentration required to inhibit 50% proliferation of cultured lymphoid leukemia L1210 cells was measured. Format: functional, cell-based. The conditions noted are these: Mus musculus.
Test [2] is described as follows: (§1) Concentration that causes a mitotic index of 0.5 for cultured lymphoid leukemia L1210 cells was determined. It is filed as functional, Mus musculus.
In test [3] the test system is L1210. The description is as §1. It is filed as functional, Mus musculus.

The structures appear in SMILES notation.

In the test with L1210 [1], `COC(=O)Nc1cc(N)c2nc(-c3ccccc3)cnc2c1` registered an IC50 of more than 100 µM.

In the test on L1210 [1], `CCOC(=O)Nc1cc2c(c(N)n1)NC(c1ccccc1)=NN2` registered an IC50 of more than 10 µM. In test [2], `COC(=O)Nc1cc(N)c2nc(-c3ccccc3)c(O)nc2c1` had an MI0.5 of 1.9 µM. Moreover, the half-inhibitory concentration (IC50) in the test with L1210 [1] came to 0.75 µM. With `COC(=O)Nc1cc(N)c2c(c1)NCC(c1ccccc1)=N2`, the IC50 in the test on L1210 [1] was 24 µM.

In the test on L1210 [3], `CCOC(=O)Nc1cc2nc(O)c(-c3ccccc3)nc2c(N)n1` had an MI0.5 of 0.022 µM. This molecule also had an IC50 in the test on L1210 [1] of 0.042 µM. In the test with L1210 [3], `CCOC(=O)c1cc(N)c2nc(-c3ccccc3)cnc2c1` had an MI0.5 of more than 10 µM. In the test on L1210 [1], this molecule had an IC50 of more than 100 µM.

In test [2], `CCOC(=O)Nc1cc2c(c(N)n1)N=C(c1ccccc1)CN2` returned an MI0.5 of 0.0028 µM. For `CCOC(=O)Nc1cc2ncc(-c3ccccc3)nc2c(N)n1`, the IC50 with L1210 [1] is 0.3 µM. As to `CCOC(=O)c1cc(N)c2c(c1)NCC(c1ccccc1)=N2`, the MI0.5 in the test with L1210 [3] was more than 10 µM. Moreover, in the test with L1210 [1], the IC50 was more than 100 µM.

In the test on L1210 [1], `CCOC(=O)Nc1cc2nc(N)c(-c3ccccc3)nc2c(N)n1` showed an IC50 of more than 30 µM. On the same count and under the same terms, then `CCOC(=O)Nc1cc2nnc(-c3ccccc3)nc2c(N)n1`, with more than 10 µM.

By IC50 is commonly meant the midpoint of a concentration-inhibition curve.
